Here are results for 8 molecules from ChEMBL document CHEMBL1201862, “PubChem BioAssay data set” (2004).

The structures appear in SMILES notation.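 Five concentrations, 48 hours, 96-well plates. GI50 is the concentration that inhibits growth by half.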 Calls of active or inactive are those of the source. Rule as the data show it: active = GI50 up to about 1.1 µM and inactive = higher. Where only a bound is given, the exact number is not on record here.

Among the test systems are UACC-62; NCI-H23; HL-60; SR; MOLT-4; HOP-62; OVCAR-8; MDA-MB-231; SN12C; KM12; SF-268; RPMI-8226; UACC-257; Malme-3M; HCC 2998; SK-MEL-2; SNB-75; OVCAR-5; SK-MEL-5; ACHN.
Holding throughout (test): growth of human tumour cells (NCI), 48 h

Take `C=C1CC2(C[C@@H](c3ccccc3)O[C@@H](c3ccccc3)C2)OC1=O` (stereo not given in full): the GI50 in the experiment on UACC-62 was 2.51 µM (inactive); in the experiment with NCI-H23 it was 2.64 µM (inactive); with HL-60 it was 0.44 µM (active); in the experiment on SR, 2.3 µM (inactive); in the experiment with MOLT-4, 1.95 µM (inactive); in the experiment on HOP-62 it was 14.4 µM (inactive). Also, the GI50 is 2.49 µM (inactive) in the experiment on OVCAR-8; 2.15 µM (inactive) in the experiment with MDA-MB-231; 3.01 µM (inactive) with SN12C; 4.39 µM (inactive) in the experiment on KM12; 7.31 µM (inactive) in the experiment with SF-268; 0.341 µM (active) in the experiment on RPMI-8226. The GI50 with UACC-257 was 3.35 µM (inactive); in the experiment with Malme-3M, 1.89 µM (inactive); in the experiment with HCC 2998, 6.7 µM (inactive); with SK-MEL-2, 3.98 µM (inactive); in the experiment on SNB-75, 4.65 µM (inactive); with OVCAR-5 it was 13.3 µM (inactive). Also, the results for the GI50 in the experiment on SK-MEL-5 and in the experiment with ACHN were 3.01 µM (inactive) and 2.88 µM (inactive), respectively.

With `O[C@]12C=C(c3nccc4c3[nH]c3ccccc34)[C@@H]3CCN(CCCC/C=C\CC1)C[C@@]31CC3/C=C\CCCCN3[C@H]12` (stereo not given in full), the GI50 in the experiment on UACC-62 is 0.0733 µM (active); in the experiment on NCI-H23, 0.213 µM (active); with HL-60 it was 0.248 µM (active); with SR, 0.311 µM (active); in the experiment with MOLT-4, 0.138 µM (active); with HOP-62, 0.223 µM (active). Also, the GI50 in the experiment on OVCAR-8 was 0.331 µM (active); in the experiment with MDA-MB-231, 0.484 µM (active); with SN12C, 0.44 µM (active); with KM12, 0.387 µM (active); in the experiment on SF-268 it was 0.533 µM (active); in the experiment with RPMI-8226, 0.31 µM (active). Moreover, the GI50 in the experiment with UACC-257 was 0.652 µM (active); in the experiment with Malme-3M it was 0.509 µM (active); with HCC 2998, 0.284 µM (active); with SK-MEL-2, 0.244 µM (active); with SNB-75, 0.242 µM (active); in the experiment with OVCAR-5, 0.405 µM (active). Further, the GI50 was 0.187 µM (active) in the experiment on SK-MEL-5 and 0.299 µM (active) in the experiment with ACHN.

Turning to `Cc1cc(C)n(C2OC(CO)C(O)C(O)C2O)c(=S)c1C#N` (stereo not given), the GI50 in the experiment with UACC-62, in the experiment with NCI-H23, in the experiment with HL-60, with SR, with MOLT-4 and in the experiment on HOP-62 was > 100 µM (inactive) each time. The GI50 with OVCAR-8, in the experiment with MDA-MB-231, in the experiment on SN12C, with KM12, in the experiment with SF-268 and in the experiment on RPMI-8226 was > 100 µM (inactive) each time. The GI50 in the experiment with UACC-257, in the experiment with Malme-3M, in the experiment with HCC 2998, in the experiment on SK-MEL-2, in the experiment with SNB-75 and in the experiment with OVCAR-5 was > 100 µM (inactive) each time. Moreover, the GI50 with SK-MEL-5 and with ACHN was > 100 µM (inactive) each time.

Turning to `CCCCCCCCCCCCOCCCCCCCCC/C=C/c1ccc2c(c1)OCCOCCOCCOCCO2`, the GI50 in the experiment on UACC-62 is 15.1 µM (inactive); with NCI-H23 it was 15.6 µM (inactive); in the experiment with HL-60, 28.8 µM (inactive); in the experiment with SR, 21 µM (inactive); in the experiment on MOLT-4 it was 28.7 µM (inactive); with HOP-62, 28 µM (inactive). Also, the GI50 with OVCAR-8 was 12.7 µM (inactive); in the experiment with MDA-MB-231 it was 17.1 µM (inactive); in the experiment with SN12C, 23.6 µM (inactive); with KM12 it was 16.8 µM (inactive); with SF-268, 22.8 µM (inactive); with RPMI-8226 it was 17.7 µM (inactive). The GI50 in the experiment on UACC-257 is 27 µM (inactive); with Malme-3M it was 24.6 µM (inactive); in the experiment on HCC 2998, 17.9 µM (inactive); in the experiment with SK-MEL-2, 15.8 µM (inactive); with SNB-75, 16.4 µM (inactive); in the experiment on OVCAR-5, 31 µM (inactive). The GI50 in the experiment on SK-MEL-5 is 15.5 µM (inactive); in the experiment with ACHN it was 19.1 µM (inactive).

On to `CCCCCCCC(=O)OC[n+]1cccc(-c2c(COC(=O)NC(C)C)c(COC(=O)NC(C)C)c3n2CCC3)c1`, for which the GI50 in the experiment with UACC-62 was 38.1 µM (inactive); with NCI-H23 it was 61.7 µM (inactive); in the experiment with HL-60 it was 24.3 µM (inactive); with SR, 12.8 µM (inactive); with MOLT-4, 20.1 µM (inactive); with HOP-62 it was > 63.1 µM (inactive). In addition, the GI50 is 82 µM (inactive) in the experiment on OVCAR-8; > 100 µM (inactive) with MDA-MB-231; 48 µM (inactive) with SN12C; > 100 µM (inactive) in the experiment with KM12; > 55.8 µM (inactive) in the experiment with SF-268; > 86.1 µM (inactive) in the experiment on RPMI-8226. For the same molecule, the GI50 in the experiment with UACC-257 is > 100 µM (inactive); in the experiment on Malme-3M it was > 100 µM (inactive); in the experiment with HCC 2998 it was > 100 µM (inactive); in the experiment on SK-MEL-2, > 100 µM (inactive); with SNB-75, > 78 µM (inactive); in the experiment with OVCAR-5, > 100 µM (inactive). Moreover, the GI50 in the experiment with SK-MEL-5 is > 100 µM (inactive); in the experiment on ACHN, 34 µM (inactive).

Consider `COc1ccc(Cc2nc3cc(Cl)ccc3o2)cc1`, for which the GI50 was 60 µM (inactive) in the experiment on UACC-62; 29.2 µM (inactive) in the experiment on NCI-H23; 28.4 µM (inactive) in the experiment on HL-60; 23.7 µM (inactive) in the experiment with SR; 18.8 µM (inactive) with MOLT-4; > 100 µM (inactive) in the experiment with HOP-62. The GI50 was 40.8 µM (inactive) in the experiment on OVCAR-8; 30.8 µM (inactive) in the experiment on MDA-MB-231; 54.5 µM (inactive) in the experiment on SN12C; 27.7 µM (inactive) with KM12; 45.4 µM (inactive) in the experiment with SF-268; 21.3 µM (inactive) with RPMI-8226. Besides, the GI50 in the experiment on UACC-257 is 24 µM (inactive); in the experiment on Malme-3M, 26.7 µM (inactive); in the experiment with HCC 2998, 20.8 µM (inactive); in the experiment with SK-MEL-2, 23.3 µM (inactive); in the experiment with SNB-75, 13.1 µM (inactive); in the experiment on OVCAR-5, 50.6 µM (inactive). For the same molecule, the figures for the GI50 with SK-MEL-5 and in the experiment with ACHN were 14.5 µM (inactive) and 59 µM (inactive), respectively.

Take `Clc1ccc(C(c2ccc(Cl)cc2)N2CCNCC2)cc1`: the GI50 in the experiment with UACC-62 was 1.77 µM (inactive); in the experiment on NCI-H23, 5.24 µM (inactive); in the experiment with HL-60 it was 1.86 µM (inactive); in the experiment with SR, 1.75 µM (inactive); in the experiment with MOLT-4, 1.87 µM (inactive); in the experiment on HOP-62 it was 1.87 µM (inactive). The GI50 was 2.07 µM (inactive) in the experiment on OVCAR-8; 2.09 µM (inactive) with MDA-MB-231; 2.89 µM (inactive) in the experiment on SN12C; 1.77 µM (inactive) in the experiment on KM12; 4.95 µM (inactive) with SF-268; 1.83 µM (inactive) with RPMI-8226. In addition, the GI50 in the experiment with UACC-257 was 2.12 µM (inactive); in the experiment with Malme-3M, 1.58 µM (inactive); with HCC 2998 it was 1.46 µM (inactive); in the experiment on SK-MEL-2, 1.85 µM (inactive); in the experiment with SNB-75, 2.34 µM (inactive); with OVCAR-5, 6.78 µM (inactive). Besides, the GI50 in the experiment on SK-MEL-5 is 2.02 µM (inactive); in the experiment on ACHN, 2.16 µM (inactive).

As to `CO[C@@H]1C[C@H](OC(N)=O)[C@@H]2C=C[C@@H]3/C=C(C)/C=C/[C@@H](C)[C@H](/C(C)=C/[C@@H](C)NC(C)=O)OC(=O)/C=C/C=C(C)\C=C\[C@]3(C)[C@@H]2C1` [SUPERSTOLIDE B], the GI50 with UACC-62 is < 0.005 µM (active); with NCI-H23, < 0.005 µM (active); with HL-60, < 0.005 µM (active); in the experiment on SR it was < 0.005 µM (active); in the experiment on MOLT-4 it was 0.31 µM (active); in the experiment with HOP-62 it was < 0.005 µM (active). Moreover, the GI50 is 0.00607 µM (active) with OVCAR-8; < 0.005 µM (active) in the experiment with MDA-MB-231; < 0.005 µM (active) in the experiment on SN12C; < 0.005 µM (active) with KM12; 0.0724 µM (active) with SF-268; 0.0158 µM (active) in the experiment with RPMI-8226. The GI50 with UACC-257 was 0.0189 µM (active); with Malme-3M, < 0.005 µM (active); in the experiment on HCC 2998, < 0.005 µM (active); with SK-MEL-2, 0.319 µM (active); in the experiment on SNB-75 it was < 0.005 µM (active); in the experiment on OVCAR-5, 0.466 µM (active). The GI50 in the experiment with SK-MEL-5 and with ACHN was < 0.005 µM (active) throughout.
